From ChEMBL document CHEMBL1201862, “PubChem BioAssay data set” (2004)
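A five-concentration, 48-hour dose response in 96-well plates underlies each endpoint, interpolated linearly between surrounding concentrations. GI50: concentration for 50% inhibition of growth.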 The source made the active and inactive calls. Rule as the data show it: active = GI50 up to about 1.1 µM and inactive = higher.

Legend:
Assay in all cases: NCI anticancer screen, dose series, 48 h
OVCAR-5 = system: OVCAR-5
NCI-H522 = system: NCI-H522
SNB-19 = system: SNB-19
HOP-18 = system: HOP-18
KM12 = system: KM12
TK-10 = system: TK-10
ACHN = system: ACHN
MOLT-4 = system: MOLT-4
K562 = system: K562
DLD-1 = system: DLD-1
SF-539 = system: SF-539
NCI-H460 = system: NCI-H460
786-0 = system: 786-0
NCI-H226 = system: NCI-H226
SNB-78 = system: SNB-78
UACC-257 = system: UACC-257
LXFL 529 = system: LXFL 529
DMS-273 = system: DMS-273
U-251 = system: U-251
SN12C = system: SN12C
DMS-114 = system: DMS-114
M14 = system: M14
EKVX = system: EKVX
HL-60 = system: HL-60
SK-MEL-28 = system: SK-MEL-28
HCT-15 = system: HCT-15
UACC-62 = system: UACC-62
SK-MEL-5 = system: SK-MEL-5
HCT-116 = system: HCT-116
LOX IMVI = system: LOX IMVI
UO-31 = system: UO-31
IGROV-1 = system: IGROV-1
KM-20L2 = system: KM-20L2
Malme-3M = system: Malme-3M
SF-268 = system: SF-268
SR = system: SR
A498 = system: A498
OVCAR-4 = system: OVCAR-4
CCRF-CEM = system: CCRF-CEM
SF-295 = system: SF-295
CAKI-1 = system: CAKI-1
OVCAR-3 = system: OVCAR-3
HOP-92 = system: HOP-92
SW-620 = system: SW-620
COLO 205 = system: COLO 205
OVCAR-8 = system: OVCAR-8
SK-MEL-2 = system: SK-MEL-2
HT-29 = system: HT-29
A549 = system: A549
M19-MEL = system: M19-MEL
HOP-62 = system: HOP-62
RPMI-8226 = system: RPMI-8226
SK-OV-3 = system: SK-OV-3
RXF 393 = system: RXF 393
SNB-75 = system: SNB-75
HCC 2998 = system: HCC 2998
NCI-H23 = system: NCI-H23
XF498 = system: XF498

Measured: GI50

O=C(/C=C/c1cc(Cl)cc(Cl)c1O)c1cccc(O)c1
41.5 µM: HCT-15
inactive: OVCAR-5 15 µM | NCI-H522 > 100 µM | SNB-19 41.9 µM | HOP-18 31 µM | KM12 54 µM | TK-10 > 100 µM | ACHN > 100 µM | MOLT-4 20.4 µM | K562 33.4 µM | DLD-1 38.8 µM | SF-539 28.2 µM | NCI-H460 > 100 µM | 786-0 70.5 µM | NCI-H226 16.1 µM | SNB-78 91.8 µM | UACC-257 > 100 µM | LXFL 529 57.1 µM | DMS-273 54.2 µM | U-251 25.5 µM | SN12C 13.7 µM | DMS-114 35.9 µM | M14 29.5 µM | EKVX 36.3 µM | HL-60 29.1 µM | SK-MEL-28 43.5 µM | UACC-62 29.8 µM | SK-MEL-5 45.6 µM | HCT-116 42.4 µM | LOX IMVI 12.6 µM | UO-31 74.1 µM | IGROV-1 42.2 µM | KM-20L2 48.3 µM | Malme-3M 28.6 µM | SF-268 40.2 µM | SR 25.5 µM | A498 > 100 µM | OVCAR-4 40.2 µM | CCRF-CEM 29.9 µM | SF-295 14.8 µM | CAKI-1 > 100 µM | OVCAR-3 28.4 µM | HOP-92 27.8 µM | SW-620 54.5 µM | COLO 205 18.6 µM | OVCAR-8 32.1 µM | SK-MEL-2 26.2 µM | HT-29 93.8 µM | A549 > 100 µM | M19-MEL 26.5 µM | HOP-62 74 µM | RPMI-8226 49.3 µM | SK-OV-3 31.8 µM | RXF 393 > 100 µM | SNB-75 36 µM | HCC 2998 85.3 µM | NCI-H23 52 µM

Cc1ccc(C(=O)C(C2=Nc3nnc(N)n3C2=O)C2=Nc3nnc(N)n3C2=O)cc1
inactive: OVCAR-5 > 100 µM | NCI-H522 > 100 µM | SNB-19 > 100 µM | KM12 > 100 µM | TK-10 > 100 µM | ACHN > 100 µM | MOLT-4 > 100 µM | K562 > 100 µM | DLD-1 > 100 µM | SF-539 > 100 µM | NCI-H460 > 100 µM | 786-0 > 100 µM | NCI-H226 > 100 µM | SNB-78 > 100 µM | UACC-257 > 100 µM | LXFL 529 > 100 µM | DMS-273 > 100 µM | SN12C > 100 µM | DMS-114 > 100 µM | M14 > 100 µM | EKVX > 100 µM | HL-60 > 100 µM | SK-MEL-28 > 100 µM | UACC-62 > 100 µM | SK-MEL-5 > 100 µM | LOX IMVI > 100 µM | UO-31 > 100 µM | IGROV-1 > 100 µM | KM-20L2 > 100 µM | Malme-3M > 100 µM | SF-268 > 100 µM | A498 > 100 µM | OVCAR-4 > 100 µM | CCRF-CEM > 100 µM | SF-295 > 100 µM | CAKI-1 > 100 µM | OVCAR-3 > 100 µM | XF498 > 100 µM | HOP-92 > 100 µM | SW-620 > 100 µM | COLO 205 > 100 µM | OVCAR-8 > 100 µM | SK-MEL-2 > 100 µM | HT-29 > 100 µM | A549 > 100 µM | M19-MEL > 100 µM | RPMI-8226 > 100 µM | SK-OV-3 > 100 µM | RXF 393 > 100 µM | SNB-75 > 100 µM | HCC 2998 > 100 µM | NCI-H23 > 100 µM
> 100 µM: HCT-15

CCOC(=O)NC(=O)c1cn(CCCOC(=O)NCCCCCCNC(=O)OCCCn2cc(C(=O)NC(=O)OCC)c(=O)[nH]c2=O)c(=O)[nH]c1=O
28.2 µM: HCT-15
inactive: SNB-19 28.6 µM | HOP-18 82.8 µM | TK-10 29.8 µM | ACHN 18.7 µM | MOLT-4 36.3 µM | K562 7.67 µM | DLD-1 31.3 µM | SF-539 18.5 µM | NCI-H460 77.4 µM | 786-0 20 µM | SNB-78 36.7 µM | UACC-257 19.2 µM | LXFL 529 57.4 µM | DMS-273 30.7 µM | U-251 18.1 µM | SN12C 47.6 µM | DMS-114 15.3 µM | M14 20.4 µM | EKVX > 100 µM | HL-60 16.7 µM | SK-MEL-28 28.3 µM | UACC-62 20.1 µM | SK-MEL-5 37.5 µM | HCT-116 35.1 µM | LOX IMVI 43.1 µM | IGROV-1 41.9 µM | KM-20L2 50 µM | A498 22.8 µM | OVCAR-4 7.4 µM | CCRF-CEM 5.4 µM | SF-295 22.5 µM | CAKI-1 11.9 µM | OVCAR-3 17.4 µM | HOP-92 24.3 µM | SW-620 26 µM | COLO 205 19.8 µM | OVCAR-8 31.3 µM | HT-29 63.4 µM | A549 > 100 µM | M19-MEL 31.9 µM | HOP-62 40.1 µM | RPMI-8226 14.1 µM | SK-OV-3 66.1 µM | RXF 393 > 10 µM | SNB-75 23.3 µM | HCC 2998 20 µM | NCI-H23 > 10 µM
